Assay results: paper doi:10.1101/2020.02.10.942029v1 (biorxiv, 2020)

Biological target: human CatSper (CatSper channel, cation channel of sperm) (Homo sapiens, UniProt Q7RTX7+Q86XQ3+Q8NEC5+Q96P56)
Assay: whole-cell patch clamp of human sperm
Format: cell-based
Settings: activator; 20 μM, NaDVF, pHi 7.3, room temperature

CCCCCCOC(=O)[C@]1(O)C[C@@H]2O[C@@]1(C)n1c3ccccc3c3c4c(c5c6ccccc6n2c5c31)C(=O)NC4 [KT 5720]
fold current enhancement at -80 mV: 1.48 ± 0.47 fold
